From patent publication US12478689B2, “Anti-CD19 antibody drug conjugates” (AbbVie Biotherapeutics Inc., priority 2022, dated 2025)

Tests used:
[1] = test system: Farage, SU-DHL-6, OCI-LY19 cells; conditions: GRM 100 nM, ADC-1 1 μM; all 3 cell lines
RS4;11 (ALL) = conditions: read-out: EC50 in vitro cytotoxicity (% cell viability), 5-day compound treatment, FIG. 1
RS4;11 tumors = assay: ALL subcutaneous xenograft in CB17/SCID mice; format: in vivo; conditions: FIG. 11; fucosylated mAb and ADC-1 used; prednisolone [QD×5]×3; ADC-1 single low dose
From the text: Food and water were available ad libitum.
Intraperitoneal route of administration was used.
Tumor volume was estimated one to two times weekly.

| SMILES | Apoptosis (BIM, cleaved caspase-3, cleaved PARP) [1] | EC50 (RS4;11 (ALL)) [nM] | Anti-tumor activity (RS4;11 tumors) |
| --- | --- | --- | --- |
| C[C@]12C=CC(=O)C=C1[C@@H](F)C[C@H]1[C@@H]3C[C@H]4O[C@@H](c5ccc(Cc6cccc(N)c6)cc5)O[C@@]4(C(=O)CO)[C@@]3(C)C[C@H](O)[C@@]12F [Compound of Formula IV, (2S,6aS,6bR,7S,8aS,8bS,10R,11aR,12aS,12bS)-10-(4-(3-Aminobenzyl)phenyl)-2,6b-difluoro-7-hydroxy-8b-(2-hydroxyacetyl)-6a,8a-dimethyl-1,2,6a,6b,7,8,8a,8b,11a,12,12a,12b-dodecahydro-4H-naphtho[2′,1′:4,5]indeno[1,2-d][1,3]dioxol-4-one] | induced apoptosis |  |  |
| C[C@@H]1C[C@H]2[C@@H]3CCC4=CC(=O)C=C[C@]4(C)[C@@]3(F)[C@@H](O)C[C@]2(C)[C@@]1(O)C(=O)CO [dexamethasone] |  | 3.28 |  |
| C[C@]12C=CC(=O)C=C1CC[C@@H]1[C@@H]2[C@@H](O)C[C@@]2(C)[C@H]1CC[C@]2(O)C(=O)CO [prednisolone, reference compound] |  | 82.9 | modest anti-tumor activity |
